Patent US20260078119A1, “DEGRADER COMPOUNDS AND USES THEREOF” (Bristol-Myers Squibb Company, priority 2024, published 2026)

What was measured:
[1] = biological target: T1, FAK (Homo sapiens, UniProt Q05397); test: FAK-HiBiT Degradation Assay; assay type: cell-based; settings: for DC50: JHH-4-FAK-HiBiT clone d01 cells, two hours incubation, 10-point dose response, 3-fold dilution starting at 1 μM, Nano-Glo HiBiT luminescence, read-out: FAK HiBiT EC50; for FAK HiBiT Ymin: lower limit of the four parameter fit (value A), Ymax derived using DMSO control, JHH-4-FAK-HiBiT cells, two hours
T1 construct: homozygous knock-in of a HiBiT tag (Promega Corporation, Madison, WI) to the C-terminus of the FAK gene in its natural genomic locus; endogenous in cells; host or cells: JHH-4-FAK-HiBiT clone d01 (CRISPR-Cas9 knock-in at the endogenous locus)
T1 sequence (Q05397 whole entry): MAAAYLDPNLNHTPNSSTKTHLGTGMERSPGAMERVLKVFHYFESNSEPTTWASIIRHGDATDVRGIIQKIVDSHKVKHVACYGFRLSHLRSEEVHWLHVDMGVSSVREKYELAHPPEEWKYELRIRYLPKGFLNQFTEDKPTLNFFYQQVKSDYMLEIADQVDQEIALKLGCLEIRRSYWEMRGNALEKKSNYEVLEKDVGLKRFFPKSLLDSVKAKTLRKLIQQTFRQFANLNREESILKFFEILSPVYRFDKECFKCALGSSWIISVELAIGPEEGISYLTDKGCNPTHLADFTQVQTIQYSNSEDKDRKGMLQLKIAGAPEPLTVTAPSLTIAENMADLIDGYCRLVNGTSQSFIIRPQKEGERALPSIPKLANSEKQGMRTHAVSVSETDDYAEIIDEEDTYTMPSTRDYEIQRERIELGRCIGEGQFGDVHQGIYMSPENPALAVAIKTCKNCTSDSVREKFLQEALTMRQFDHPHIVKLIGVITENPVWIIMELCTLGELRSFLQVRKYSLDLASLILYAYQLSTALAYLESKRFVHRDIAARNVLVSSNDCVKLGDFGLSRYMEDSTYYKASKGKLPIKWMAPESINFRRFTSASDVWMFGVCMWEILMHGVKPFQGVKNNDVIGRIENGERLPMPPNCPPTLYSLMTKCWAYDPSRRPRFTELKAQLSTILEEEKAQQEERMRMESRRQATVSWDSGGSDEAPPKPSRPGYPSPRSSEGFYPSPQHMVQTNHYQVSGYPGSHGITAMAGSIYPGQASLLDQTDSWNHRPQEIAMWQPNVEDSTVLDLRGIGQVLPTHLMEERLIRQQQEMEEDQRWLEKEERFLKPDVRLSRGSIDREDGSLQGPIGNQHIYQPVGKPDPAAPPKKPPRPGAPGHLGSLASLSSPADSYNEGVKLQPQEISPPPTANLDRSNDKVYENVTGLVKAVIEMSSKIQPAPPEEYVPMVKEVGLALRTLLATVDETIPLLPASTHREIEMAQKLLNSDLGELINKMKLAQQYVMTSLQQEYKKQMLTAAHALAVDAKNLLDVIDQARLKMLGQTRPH
Method in brief: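 JHH-4 cells with homozygous CRISPR knock-in of C-terminal HiBiT on endogenous FAK, treated 2 h at 37 °C with compounds in 10-point 3-fold series from 1 μM. HiBiT lytic luminescence read; EC50 from four-parameter logistic fit, Ymax set by DMSO control, Ymin as lower fit limit.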

[2] = system: CAL-51 cells; test: CAL-51 Cell Proliferation Assay; assay type: cell-based; settings: for EC50: Homo sapiens, 120 hours incubation, 10-point dose response, 4-fold dilutions starting at 10 μM, Cell-Titer-Glo, read-out: CAL-51 Prolif EC50; for CAL-51 Prolif Ymin: minimal percent of DMSO control observed in the concentrations tested (Ymin-obs), 120 hours
Method in brief: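 Cells seeded at 350/well in RPMI complete medium onto 10-point, 4-fold compound dilutions from 10 μM (0.1% DMSO), in duplicate, and grown 120 h at 37 °C. CellTiter-Glo luminescence, blank-subtracted and normalised to DMSO, was fitted with a four-parameter logistic to give EC50; Ymin-obs is the lowest observed percent of DMSO control.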

| SMILES | DC50 [1] [µM] | FAK HiBiT Ymin [1] | EC50 [2] [µM] | CAL-51 Prolif Ymin [2] |
| --- | --- | --- | --- | --- |
| CN(c1cc(-c2ncc(C(F)(F)F)cc2Cl)c2cnn(Cc3ccc4c(c3)CN([C@H]3CCC(=O)NC3=O)C4=O)c2n1)[C@H]1C[C@H](O)C1 [Example 81, (3S)-3-[5-({4-[3-chloro-5-(trifluoromethyl)pyridin-2-yl]-6-{methyl[(1r,3r)-3-hydroxycyclobutyl]amino}-1H-pyrazolo[3,4-b]pyridin-1-yl}methyl)-1-oxo-2,3-dihydro-1H-isoindol-2-yl]piperidine-2,6-dione] | 0.00957 | 12.82 | 0.00637 | 38.16 |
| CCOc1cnc(-c2cc(N3CC(F)C3)nc3c2cnn3Cc2ccc3c(c2)CN([C@H]2CCC(=O)NC2=O)C3=O)c(C)c1 [Example 82, (3S)-3-(5-{[4-(5-ethoxy-3-methylpyridin-2-yl)-6-(3-fluoroazetidin-1-yl)-1H-pyrazolo[3,4-b]pyridin-1-yl]methyl}-1-oxo-2,3-dihydro-1H-isoindol-2-yl)piperidine-2,6-dione] | 0.00961 | 8.29 | 0.00419 | 29.74 |
| CN(c1cc(-c2ncc(C(F)(F)F)cc2Cl)c2cnn(Cc3ccc4c(c3)CN([C@H]3CCC(=O)NC3=O)C4=O)c2n1)C1CC(C)(O)C1 (stereo partly drawn) [Example 83, (3S)-3-[5-({4-[3-chloro-5-(trifluoromethyl)pyridin-2-yl]-6-{methyl[(1r,3s)-3-hydroxy-3-methylcyclobutyl]amino}-1H-pyrazolo[3,4-b]pyridin-1-yl}methyl)-1-oxo-2,3-dihydro-1H-isoindol-2-yl]piperidine-2,6-dione] | 0.0102 | 10.27 | 0.00541 | 30.14 |
| Cc1cnc(-c2cc(N3CC(F)C3)nc3c2cnn3Cc2ccc3c(c2)CN(C2CCC(=O)NC2=O)C3=O)c(C)c1 (centres unmarked) [Example 85, 3-(5-{[4-(3,5-dimethylpyridin-2-yl)-6-(3-fluoroazetidin-1-yl)-1H-pyrazolo[3,4-b]pyridin-1-yl]methyl}-1-oxo-2,3-dihydro-1H-isoindol-2-yl)piperidine-2,6-dione] | 0.0111 | 11.71 | 0.00682 | 35.10 |
| O=C1CCC(N2Cc3cc(Cn4ncc5c(-c6ncccc6Cl)cc(N6CC(F)C6)nc54)ccc3C2=O)C(=O)N1 (centres unmarked) [Example 89, 3-(5-{[4-(3-chloropyridin-2-yl)-6-(3-fluoroazetidin-1-yl)-1H-pyrazolo[3,4-b]pyridin-1-yl]methyl}-1-oxo-2,3-dihydro-1H-isoindol-2-yl)piperidine-2,6-dione] | 0.0134 | 8.18 | 0.00669 | 24.94 |
| O=C1CCC(N2Cc3cc(Cn4ncc5c(-c6ncc(Cl)cc6F)cc(N6CC(F)C6)nc54)ccc3C2=O)C(=O)N1 (centres unmarked) [Example 90, 3-(5-{[4-(5-chloro-3-fluoropyridin-2-yl)-6-(3-fluoroazetidin-1-yl)-1H-pyrazolo[3,4-b]pyridin-1-yl]methyl}-1-oxo-2,3-dihydro-1H-isoindol-2-yl)piperidine-2,6-dione] | 0.0136 | 15.97 | 0.0104 | 37.96 |
| Cc1cc(C#N)cnc1-c1cc(N2CC(F)C2)nc2c1cnn2Cc1ccc2c(c1)CN(C1CCC(=O)NC1=O)C2=O (centres unmarked) [Example 91, 6-(1-{[2-(2,6-dioxopiperidin-3-yl)-1-oxo-2,3-dihydro-1H-isoindol-5-yl]methyl}-6-(3-fluoroazetidin-1-yl)-1H-pyrazolo[3,4-b]pyridin-4-yl)-5-methylpyridine-3-carbonitrile] | 0.0141 | 8.03 | 0.00778 | 24.52 |
| O=C1CCC(N2Cc3cc(Cn4ncc5c(-c6ncccc6Br)cc(N6CC(F)C6)nc54)ccc3C2=O)C(=O)N1 (centres unmarked) [Example 93, 3-(5-{[4-(3-bromopyridin-2-yl)-6-(3-fluoroazetidin-1-yl)-1H-pyrazolo[3,4-b]pyridin-1-yl]methyl}-1-oxo-2,3-dihydro-1H-isoindol-2-yl)piperidine-2,6-dione] | 0.0155 | 16.43 | 0.00936 | 36.26 |
| CN(c1cc(-c2ncc(C(F)(F)F)cc2Cl)c2cnn(Cc3ccc4c(c3)CN(C3CCC(=O)NC3=O)C4=O)c2n1)C1CCOCC1 (centres unmarked) [Example 94, 3-[5-({4-[3-chloro-5-(trifluoromethyl)pyridin-2-yl]-6-[methyl(oxan-4-yl)amino]-1H-pyrazolo[3,4-b]pyridin-1-yl}methyl)-1-oxo-2,3-dihydro-1H-isoindol-2-yl]piperidine-2,6-dione] | 0.0183 | 23.92 | 0.00552 | 47.74 |
| O=C1CC[C@H](N2Cc3cc(Cn4ncc5c(-c6ccc(F)cc6F)cc(N6CC[C@H](O)C6)nc54)ccc3C2=O)C(=O)N1 [Example 95, (3S)-3-(5-{[4-(2,4-difluorophenyl)-6-[(3S)-3-hydroxypyrrolidin-1-yl]-1H-pyrazolo[3,4-b]pyridin-1-yl]methyl}-1-oxo-2,3-dihydro-1H-isoindol-2-yl)piperidine-2,6-dione] | 0.0199 | 22.15 | 0.0135 | 46.68 |
| CCOc1ccc(-c2cc(N3CC[C@](C)(O)C3)nc3c2cnn3Cc2ccc3c(c2)CN(C2CCC(=O)NC2=O)C3=O)c(Cl)c1 (stereo partly drawn) [Example 96, 3-(5-{[4-(2-chloro-4-ethoxyphenyl)-6-[(3S)-3-hydroxy-3-methylpyrrolidin-1-yl]-1H-pyrazolo[3,4-b]pyridin-1-yl]methyl}-1-oxo-2,3-dihydro-1H-isoindol-2-yl)piperidine-2,6-dione] | 0.02 | 17.46 | 0.00188 | 45.73 |
| COc1cnc(-c2cc(N3CC(F)C3)nc3c2cnn3Cc2ccc3c(c2)CN(C2CCC(=O)NC2=O)C3=O)c(C)c1 (centres unmarked) [Example 97, 3-(5-{[6-(3-fluoroazetidin-1-yl)-4-(5-methoxy-3-methylpyridin-2-yl)-1H-pyrazolo[3,4-b]pyridin-1-yl]methyl}-1-oxo-2,3-dihydro-1H-isoindol-2-yl)piperidine-2,6-dione] | 0.0229 | 12.95 | 0.0144 | 38.61 |
| O=C1CCC(N2Cc3cc(Cn4ncc5c(-c6ncc(C(F)(F)F)cc6Cl)cc(NC6CC6)nc54)ccc3C2=O)C(=O)N1 (centres unmarked) [Example 98, 3-[5-({4-[3-chloro-5-(trifluoromethyl)pyridin-2-yl]-6-(cyclopropyl-amino)-1H-pyrazolo[3,4-b]pyridin-1-yl}methyl)-1-oxo-2,3-dihydro-1H-isoindol-2-yl]piperidine-2,6-dione] | 0.0244 | 32.32 | 0.00366 | 39.93 |
| CN(c1cc(-c2ncc(C(F)(F)F)cc2Cl)c2cnn(Cc3ccc4c(c3)CN([C@H]3CCC(=O)NC3=O)C4=O)c2n1)C1COC1 [Example 99, (3S)-3-[5-({4-[3-chloro-5-(trifluoromethyl)pyridin-2-yl]-6-[methyl(oxetan-3-yl)amino]-1H-pyrazolo[3,4-b]pyridin-1-yl}methyl)-1-oxo-2,3-dihydro-1H-isoindol-2-yl]piperidine-2,6-dione] | 0.0253 | 13.33 | 0.117 | 36.78 |
